Laboratory results taken from article PMC11604048, “Constrained TACC3 peptidomimetics for a non-canonical protein–protein interface elucidate allosteric communication in Aurora-A kinase” (Chemical Science, 2024).
Read-outs that look alike come from different tables or passages of the source. *1 amine or outer side, *2 acyl side, *3 side chain or, on linkers, in order; H or OH if unused. Where a SMILES comes first, the peptide text is derived from it. Bridges are numbered along the chain shown (N, C = ends). Biphenyl(4,4'-CH2)2 = c1cc(-c2ccc(C[*:2])cc2)ccc1C[*:1]; Maleimide(3,4-diyl) = O=C1NC(=O)C([*:2])=C1[*:1]

Target: T1, Aurora-A122-403-C290A/C393A (Homo sapiens, UniProt O14965, C290A/C393A)
T1 construct: Human Aurora-A kinase domain 122-403 wild-type or C290A/ C393A mutant; His tag (pET30TEV vector) (N, cleaved yes); made in house; host or cells: E. coli RIL, co-expressed with lambda phosphatase (Aurora-A); tracer by solid phase synthesis
T1 sequence (O14965 122-403 C290A/C393A): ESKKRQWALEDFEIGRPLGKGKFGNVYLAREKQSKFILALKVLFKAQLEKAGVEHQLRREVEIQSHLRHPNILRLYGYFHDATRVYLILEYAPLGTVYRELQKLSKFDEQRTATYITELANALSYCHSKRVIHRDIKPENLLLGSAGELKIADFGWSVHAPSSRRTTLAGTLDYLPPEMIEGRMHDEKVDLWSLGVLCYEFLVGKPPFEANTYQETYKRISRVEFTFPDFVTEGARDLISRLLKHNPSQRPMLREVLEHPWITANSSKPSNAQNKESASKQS
Test: Competition FA assay against FAM-Ahx-TACC3 522-536 tracer
Format: binding
Conditions: as E1, mean ± SD, n = 3
Method: Once completed, the mixtures were transferred into SPPS fritted reaction vessels and washed with H2O (5X, 10 mL, 2 min), DMF (5X, 5mL, 2 min) and DCM (5X, 5 mL, 2 min). The clean resins were dried under vacuum and the cyclic peptides cleaved from the resin following the general procedures described in previous sections. After Et2O precipitation, the crude materials were freeze-dried and redissolved in H2O/MeCN/TFA 90/10/0.1% v/v for preparative HPLC purification.
All disulfide peptide variants (ox) were produced in situ from their free-thiol solid precursors. For this, 2 mg of the pure peptide materials were dissolved in aqueous DMSO 33% v/v to a 10 mM concentration and were left open to air oxidation at room temperature overnight. […]
the peptides were employed for FA competition assays and IC50 evaluation without further additional […]
Fluorescence anisotropy (FA) assays – General information.
All assays were performed using 384-well plates(Greiner Bio-one, UK). […]
produced as described previously.11 All samples were prepared in 25 mM Tris,150 mM NaCl, 5 mM MgCl2, pH= 7.5, unless otherwise stated, and tested in triplicate using an EnVisionTM 2103 MultiLabel plate reader (PerkinElmer; Waltham, MA, USA).The parameters were set as follows: Excitation wavelength = 480 nm (30 nm bandwidth) and emission wavelength = 535 nm (30 nm bandwidth). Measured data were processed and analysed as previously described.12 Specifically, the perpendicular intensity (P) and parallel intensity (S) were subtracted by the control values and used for calculations of intensity and anisotropy using the following Equations 1, 2, 3, 4, and 5:
I= (2PG) + S Eq. (SI − 5)
r = (S − PG) Eq. (SI − 6)
L = r − r௠௜௡ Eq. (SI − 7)
y = (k + x + [FL]) − ඥ(k + x + [FL]2 − 4 ∗ x ∗ [FL]) Eq. (SI − 8)
y = r + r௠௜௡ − r௠௔௫ Eq. (SI − 9)
Where I = total intensity; P = perpendicular intensity; S = parallel intensity; G = instrument factor; r = anisotropy; Lb = ligand bound fraction; λ = change in intensity between bound and unbound states which […]
FA direct binding assays. […]
starting from 700 μM, diluted over 24 points in a 1/2 regime using the FAM-Ahx-labeled peptides at a final fixed concentration of 50 nM per well.
FA competition assays were performed using the same plates and buffer as described above, with the initial […]
14 points in a 1/2 regime. […]
after 4 h of incubation to enable appropriate sample equilibration. To prevent sample oxidation, when sulfhydryl peptides were analyzed DTT was added to the buffer (5 mM). In competition mode, the average anisotropy and the average standard deviation of the values derived from equation SI-6 were calculated and fit to a sigmoidal logistic model (equation SI-9) using Origin 2021. When using peptides for which full […]
For consistency, all the data […]
indicating the corresponding SD. […]

[1] = oxidised (disulfide) species made in situ from 10 mM stock in aqueous DMSO 33% v/v, air, overnight, WT control (+DMSO) given the same DMSO incubation, read-out: IC50 (ox)
[2] = free-sulfhydryl (reduced) species, DTT 5 mM in buffer, WT control (+DTT), read-out: IC50 (red)
[3] = Table S3 (mal): maleimide-constrained species, WT value is an individual replica control assay, read-out: IC50 (mal)

CC(=O)N[C@@H](CCC(=O)O)C(=O)N[C@@H](CCC(=O)O)C(=O)N[C@@H](CO)C(=O)N[C@@H](Cc1ccccc1)C(=O)N[C@@H](CCCNC(=N)N)C(=O)N[C@@H](CC(=O)O)C(=O)N1CCC[C@H]1C(=O)N[C@@H](C)C(=O)N[C@@H](CCC(=O)O)C(=O)N[C@H](C(=O)N[C@H]1CSC2=C(SC[C@@H](C(=O)N[C@@H](C)C(N)=O)NC(=O)[C@H]([C@@H](C)O)NC(=O)CNC1=O)C(=O)NC2=O)C(C)C [TACC3 522-536 L532C/G535C (mal)] (Ac-EESFRDPAEVCGTCA-NH2; linker 11-14 via Maleimide(3,4-diyl))
IC50 (Table S3 (mal): maleimide-constrained species, WT value is an individual replica control assay, SD, read-out: IC50 (mal)): 480 ± 60 µM

CC(=O)N[C@@H](CCC(=O)O)C(=O)N[C@@H](CCC(=O)O)C(=O)N[C@@H](CO)C(=O)N[C@@H](Cc1ccccc1)C(=O)N[C@@H](CCCNC(=N)N)C(=O)N[C@@H](CC(=O)O)C(=O)N1CCC[C@H]1C(=O)N[C@@H](C)C(=O)N[C@@H](CCC(=O)O)C(=O)N[C@H](C(=O)N[C@H]1CSSC[C@@H](C(=O)N[C@@H](C)C(N)=O)NC(=O)[C@H]([C@@H](C)O)NC(=O)CNC1=O)C(C)C [TACC3 522-536 L532C/G535C (ox)] (Ac-EESFRDPAEVCGTCA-NH2; disulfide 11-14)
IC50 [1]: ≥ 500 µM

CC(=O)N[C@@H](CCC(=O)O)C(=O)N[C@@H](CCC(=O)O)C(=O)N[C@@H](CO)C(=O)N[C@@H](Cc1ccccc1)C(=O)N[C@@H](CCCNC(=N)N)C(=O)N[C@@H](CC(=O)O)C(=O)N1CCC[C@H]1C(=O)N[C@@H](C)C(=O)N[C@@H](CCC(=O)O)C(=O)N[C@H](C(=O)N[C@@H](CS)C(=O)NCC(=O)N[C@H](C(=O)N[C@@H](CS)C(=O)N[C@@H](C)C(N)=O)[C@@H](C)O)C(C)C [TACC3 522-536 L532C/G535C (red)] (Ac-EESFRDPAEVCGTCA-NH2)
IC50 [2]: ≥ 500 µM

CC(=O)N[C@@H](CCC(=O)O)C(=O)N[C@@H](CCC(=O)O)C(=O)N[C@@H](CO)C(=O)N[C@@H](Cc1ccccc1)C(=O)N[C@@H](CCCNC(=N)N)C(=O)N[C@@H](CC(=O)O)C(=O)N[C@H]1CSC2=C(SC[C@@H](C(=O)N[C@@H](CC(C)C)C(=O)NCC(=O)N[C@H](C(=O)NCC(=O)N[C@@H](C)C(N)=O)[C@@H](C)O)NC(=O)[C@H](CCC(=O)O)NC(=O)[C@H](C)NC1=O)C(=O)NC2=O [TACC3 522-536 P528C/V531C (mal)] (Ac-EESFRDCAECLGTGA-NH2; linker 7-10 via Maleimide(3,4-diyl) (inferred))
IC50 [3]: ≥ 500 µM

CC(=O)N[C@@H](CCC(=O)O)C(=O)N[C@@H](CCC(=O)O)C(=O)N[C@@H](CO)C(=O)N[C@@H](Cc1ccccc1)C(=O)N[C@@H](CCCNC(=N)N)C(=O)N[C@@H](CC(=O)O)C(=O)N[C@H]1CSSC[C@@H](C(=O)N[C@@H](CC(C)C)C(=O)NCC(=O)N[C@H](C(=O)NCC(=O)N[C@@H](C)C(N)=O)[C@@H](C)O)NC(=O)[C@H](CCC(=O)O)NC(=O)[C@H](C)NC1=O [TACC3 522-536 P528C/V531C (ox)] (Ac-EESFRDCAECLGTGA-NH2; disulfide 7-10)
IC50 [1]: ≥ 500 µM

CC(=O)N[C@@H](CCC(=O)O)C(=O)N[C@@H](CCC(=O)O)C(=O)N[C@@H](CO)C(=O)N[C@@H](Cc1ccccc1)C(=O)N[C@@H](CCCNC(=N)N)C(=O)N[C@@H](CC(=O)O)C(=O)N[C@@H](CS)C(=O)N[C@@H](C)C(=O)N[C@@H](CCC(=O)O)C(=O)N[C@@H](CS)C(=O)N[C@@H](CC(C)C)C(=O)NCC(=O)N[C@H](C(=O)NCC(=O)N[C@@H](C)C(N)=O)[C@@H](C)O [TACC3 522-536 P528C/V531C (red)] (Ac-EESFRDCAECLGTGA-NH2)
IC50 [2]: ≥ 500 µM

CC(=O)N[C@@H](CCC(=O)O)C(=O)N[C@@H](CCC(=O)O)C(=O)N[C@@H](CO)C(=O)N[C@@H](Cc1ccccc1)C(=O)N[C@H]1CSC2=C(SC[C@@H](C(=O)N[C@@H](CCC(=O)O)C(=O)N[C@H](C(=O)N[C@@H](CC(C)C)C(=O)NCC(=O)N[C@H](C(=O)NCC(=O)N[C@@H](C)C(N)=O)[C@@H](C)O)C(C)C)NC(=O)[C@@H]3CCCN3C(=O)[C@H](CC(=O)O)NC1=O)C(=O)NC2=O [TACC3 522-536 R526C/A529C (mal)] (Ac-EESFCDPCEVLGTGA-NH2; linker 5-8 via Maleimide(3,4-diyl) (inferred))
IC50 [3]: ≥ 500 µM

CC(=O)N[C@@H](CCC(=O)O)C(=O)N[C@@H](CCC(=O)O)C(=O)N[C@@H](CO)C(=O)N[C@@H](Cc1ccccc1)C(=O)N[C@H]1CSSC[C@@H](C(=O)N[C@@H](CCC(=O)O)C(=O)N[C@H](C(=O)N[C@@H](CC(C)C)C(=O)NCC(=O)N[C@H](C(=O)NCC(=O)N[C@@H](C)C(N)=O)[C@@H](C)O)C(C)C)NC(=O)[C@@H]2CCCN2C(=O)[C@H](CC(=O)O)NC1=O [TACC3 522-536 R526C/A529C (ox)] (Ac-EESFCDPCEVLGTGA-NH2; disulfide 5-8)
IC50 [1]: ≥ 500 µM

CC(=O)N[C@@H](CCC(=O)O)C(=O)N[C@@H](CCC(=O)O)C(=O)N[C@@H](CO)C(=O)N[C@@H](Cc1ccccc1)C(=O)N[C@@H](CS)C(=O)N[C@@H](CC(=O)O)C(=O)N1CCC[C@H]1C(=O)N[C@@H](CS)C(=O)N[C@@H](CCC(=O)O)C(=O)N[C@H](C(=O)N[C@@H](CC(C)C)C(=O)NCC(=O)N[C@H](C(=O)NCC(=O)N[C@@H](C)C(N)=O)[C@@H](C)O)C(C)C [TACC3 522-536 R526C/A529C (red)] (Ac-EESFCDPCEVLGTGA-NH2)
IC50 (free-sulfhydryl (reduced) species, DTT 5 mM in buffer, WT control (+DTT), SD, read-out: IC50 (red)): 352 ± 45 µM

CC(=O)N[C@@H](CCC(=O)O)C(=O)N[C@@H](CCC(=O)O)C(=O)N[C@@H](CO)C(=O)N[C@@H](Cc1ccccc1)C(=O)N[C@H]1CSCc2ccc(cc2)-c2ccc(cc2)CSC[C@@H](C(=O)N[C@@H](CC(C)C)C(=O)NCC(=O)N[C@H](C(=O)NCC(=O)N[C@@H](C)C(N)=O)[C@@H](C)O)NC(=O)[C@H](CCC(=O)O)NC(=O)[C@H](C)NC(=O)[C@@H]2CCCN2C(=O)[C@H](CC(=O)O)NC1=O [TACC3 522-536 R526C/V531C (Bph)] (Ac-EESFCDPAECLGTGA-NH2; linker 5-10 via Biphenyl(4,4'-CH2)2)
IC50 (Table S3 column (Bph): biphenyl-constrained species, WT value is an individual replica control assay, SD, read-out: IC50 (Bph)): 249 ± 43 µM

CC(=O)N[C@@H](CCC(=O)O)C(=O)N[C@@H](CCC(=O)O)C(=O)N[C@@H](CO)C(=O)N[C@@H](Cc1ccccc1)C(=O)N[C@H]1CSSC[C@@H](C(=O)N[C@@H](CC(C)C)C(=O)NCC(=O)N[C@H](C(=O)NCC(=O)N[C@@H](C)C(N)=O)[C@@H](C)O)NC(=O)[C@H](CCC(=O)O)NC(=O)[C@H](C)NC(=O)[C@@H]2CCCN2C(=O)[C@H](CC(=O)O)NC1=O [TACC3 522-536 R526C/V531C (ox)] (Ac-EESFCDPAECLGTGA-NH2; disulfide 5-10)
IC50 [1]: ≥ 500 µM

CC(=O)N[C@@H](CCC(=O)O)C(=O)N[C@@H](CCC(=O)O)C(=O)N[C@@H](CO)C(=O)N[C@@H](Cc1ccccc1)C(=O)N[C@@H](CS)C(=O)N[C@@H](CC(=O)O)C(=O)N1CCC[C@H]1C(=O)N[C@@H](C)C(=O)N[C@@H](CCC(=O)O)C(=O)N[C@@H](CS)C(=O)N[C@@H](CC(C)C)C(=O)NCC(=O)N[C@H](C(=O)NCC(=O)N[C@@H](C)C(N)=O)[C@@H](C)O [TACC3 522-536 R526C/V531C (red)] (Ac-EESFCDPAECLGTGA-NH2)
IC50 [2]: ≥ 500 µM
